Patent US8895738B2, “Mesoionic pyrido [1, 2-A] pyrimidine pesticides” (E I du Pont de Nemours and Company, priority 2010, dated 2014)
Where a name gives a salt, the structure may show the parent alone.

Experiments:
Type in all cases: in vivo
[1] = tested on: rice green leafhopper (Nephotettix virescens); assay: Test G: control of rice green leafhopper on rice plant; settings: 120 h, sprayed at 50 ppm, assessed after 5 days, read-out: control efficacy: mortality
Experimental: For evaluating control of rice green leafhopper (Nephotettix virescens) through contact and/or systemic means, the test unit consisted of a plastic pot containing a 13-cm-tall rice plant covered with steel wire mesh (50 mesh) supported by a wire frame. A small amount of sand was added to form a good seal between the bottom of the wire mesh, the soil surface and the top edge of the plastic pot.
Test compounds were formulated and sprayed at 50, 10 and/or 2 ppm, and the tests were replicated three times in a manner similar to the one described for Test A. After spraying, the test units were allowed to dry for 2 h before they were post-infested with 10 green leafhoppers (3rd instar nymphs, 7-9 days post-hatch). After 5 days, each test unit was visually assessed for insect mortality.

[2] = tested on: cotton melon aphid (Aphis gossypii); assay: Test C: control of cotton melon aphid on cotton plant, contact and/or systemic
Source text: For evaluating control of cotton melon aphid (Aphis gossypii) through contact and/or systemic means, the test unit consisted of a small open container with a 6-7-day-old cotton plant inside. This was pre-infested with 30-40 insects on a piece of leaf according to the cut-leaf method described for Test B, and the soil of the test unit was covered with a layer of sand.
Test compounds were formulated and sprayed at 250 and/or 50 ppm as described for Test B. The applications were replicated three times. After spraying, the test units were maintained in a growth chamber and then visually rated as described for […].

[3] = tested on: potato leafhopper (Empoasca fabae); assay: Test E: control of potato leafhopper on Soleil bean plant, contact and/or systemic; settings: 144 h, assessed after 6 days, read-out: control efficacy: mortality; for mortality at 10 ppm: sprayed at 10 ppm; for mortality at 50 ppm: sprayed at 50 ppm
Experimental: For evaluating control of potato leafhopper (Empoasca fabae) through contact and/or systemic means, the test unit consisted of a small open container with a 5-6-day-old Soleil bean plant (primary leaves emerged) inside. White sand was added to the top of the soil and one of the primary leaves was excised prior to application.
Test compounds were formulated and sprayed at 250, 50, 10 and/or 2 ppm, and the tests were replicated three times as described for Test A. After spraying, the test units were allowed to dry for 1 h before they were post-infested with 5 potato leafhoppers (18-21-day-old adults). A black, screened cap was placed on the top of each test unit, and the test units were held for 6 days in a growth chamber at 24° C. and 70% relative humidity. Each test unit was then visually assessed for insect mortality.

[4] = tested on: corn planthopper (Peregrinus maidis); assay: Test D: control of corn planthopper on maize plant, contact and/or systemic; settings: 144 h, assessed after 6 days, read-out: control efficacy: mortality; for mortality at 10 ppm: sprayed at 10 ppm; for mortality at 50 ppm: sprayed at 50 ppm
Experimental: For evaluating control of corn planthopper (Peregrinus maidis) through contact and/or systemic means, the test unit consisted of a small open container with a 3-4-day-old maize plant (spike) inside. White sand was added to the top of the soil prior to application. Test compounds were formulated and sprayed at 250, 50, 10 and/or 2 ppm, and replicated three times as described for Test A. After spraying, the test units were allowed to dry for 1 h before they were post-infested with ˜15-20 nymphs (18 to 21 day old) by sprinkling them onto the sand with a salt shaker. A black, screened cap was placed on the top of each test unit, and the test units were held for 6 days in a growth chamber at 22-24° C. and 50-70% relative humidity. Each test unit was then visually assessed for insect mortality.

[5] = tested on: rice brown planthopper (Nilaparvata lugens); assay: Test H: control of rice brown planthopper on rice plant; settings: 120 h, sprayed at 10 ppm, assessed after 5 days, read-out: control efficacy: mortality
Experimental: For evaluating control of rice brown planthopper (Nilaparvata lugens) through contact and/or systemic means, the test unit consisted of a plastic pot containing a 13-cm-tall rice plant covered with steel wire mesh (50 mesh) supported by a wire frame. A small amount of sand was added to form a good seal between the bottom of the wire mesh, the soil surface and the top edge of the plastic pot.
Test compounds were formulated and sprayed at 10, 2 and/or 0.4 ppm, and the tests were replicated three times in a manner similar to the one described for Test A. After spraying, the test units were allowed to dry for 2 h before they were post-infested with 10 brown planthoppers (3rd instar nymphs, 7-9 days post-hatch). After 5 days, each test unit was visually assessed for insect mortality.

[6] = tested on: green peach aphid (Myzus persicae); assay: Test B: control of green peach aphid on radish plant, contact and/or systemic; settings: 144 h, assessed after 6 days
Source text: For evaluating control of green peach aphid (Myzus persicae) through contact and/or systemic means, the test unit consisted of a small open container with a 12-15-day-old radish plant inside. This was pre-infested by placing on a leaf of the test plant 30-40 aphids on a piece of leaf excised from a culture plant (cut-leaf method). The aphids moved onto the test plant as the leaf piece desiccated. After pre-infestation, the soil of the test unit was covered with a layer of sand.
Test compounds were formulated and sprayed at 250, 50 and/or 10 ppm as described for Test A. The applications were replicated three times. After spraying of the formulated test compound, each test unit was allowed to dry for 1 h and then a black, screened cap was placed on top. The test units were held for 6 days in a growth chamber at 19-21° C. and 50-70% relative humidity. Each test unit was then visually assessed for insect mortality.

O=c1c(-c2ccc(F)c(C(F)(F)F)c2)c([O-])[n+](Cc2cncnc2)c2ccccn12 [Compound 12, 3-[4-fluoro-3-(trifluoromethyl)phenyl]-2-hydroxy-4-oxo-1-(5-pyrimidinylmethyl)-4H-pyrido[1,2-a]pyrimidinium inner salt]
≥ 80%: mortality at 50 ppm [1] | mortality at 50 ppm ([2]; sprayed at 50 ppm) | mortality at 10 ppm [3] | mortality at 50 ppm [3] | mortality at 10 ppm [4] | mortality at 50 ppm [4] | mortality at 10 ppm [5]

O=c1c(-c2ccccc2)c([O-])[n+](Cc2cncnc2)c2ccccn12 [Compound 1, 2-hydroxy-4-oxo-3-phenyl-1-(5-pyrimidinylmethyl)-4H-pyrido[1,2-a]pyrimidinium inner salt]
≥ 80%: mortality at 50 ppm ([6]; sprayed at 50 ppm) | mortality at 250 ppm ([6]; sprayed at 250 ppm) | mortality at 250 ppm ([2]; sprayed at 250 ppm) | mortality at 2 ppm ([3]; sprayed at 2 ppm) | mortality at 10 ppm [3] | mortality at 50 ppm [3] | mortality at 250 ppm ([3]; sprayed at 250 ppm) | mortality at 10 ppm [4] | mortality at 50 ppm [4] | mortality at 250 ppm ([4]; sprayed at 250 ppm)
